Experimental data as given in US12259384B2, “Membrane and droplet-interface bilayer systems and methods” (University of Massachusetts, priority 2015, dated 2025).

Target: α-hemolysin (Staphylococcus aureus, UniProt P09616)
Assay type: biochemical

Chain of α-hemolysin (P09616 27-319 limits assumed): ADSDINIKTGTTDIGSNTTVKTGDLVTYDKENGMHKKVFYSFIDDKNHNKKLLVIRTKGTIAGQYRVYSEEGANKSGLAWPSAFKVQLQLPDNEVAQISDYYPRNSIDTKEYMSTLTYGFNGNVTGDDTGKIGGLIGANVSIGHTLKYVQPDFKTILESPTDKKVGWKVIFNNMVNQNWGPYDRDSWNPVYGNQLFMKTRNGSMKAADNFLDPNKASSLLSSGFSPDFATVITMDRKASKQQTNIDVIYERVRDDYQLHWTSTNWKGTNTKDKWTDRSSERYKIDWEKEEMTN

In the case of `OC[C@H]1O[C@@H]2O[C@H]3[C@H](O)[C@@H](O)[C@@H](O[C@H]4[C@H](O)[C@@H](O)[C@@H](O[C@H]5[C@H](O)[C@@H](O)[C@@H](O[C@H]6[C@H](O)[C@@H](O)[C@@H](O[C@H]7[C@H](O)[C@@H](O)[C@@H](O[C@H]8[C@H](O)[C@@H](O)[C@@H](O[C@H]9[C@H](O)[C@@H](O)[C@@H](O[C@H]1[C@H](O)[C@H]2O)O[C@@H]9CO)O[C@@H]8CO)O[C@@H]7CO)O[C@@H]6CO)O[C@@H]5CO)O[C@@H]4CO)O[C@@H]3CO` [cyclodextrin, γ-Cyclodextrin], the “magnitude and lifetime of the reversible blockades of the α-hemolysin pore” value is reported as “consistent with previous reports” and the “reversible blockages of the α-hemolysin pores” value is reported as “reversible blockages of the pores by cyclodextrin are observed”.
